Test results taken from PubChem BioAssay AID330 (DTP/NCI, 2004).
Several values for one entry are separate records, joined by “and”; a condition that tells them apart may be missing. Identical values can stand only once. Toxic doses and inconclusive results are not listed.

System: P388 leukemia ip, CD2F1 mice, survival T/C
Experiment: NCI In Vivo Anticancer Drug Screen. Data for tumor model P388 Leukemia (intraperitoneal) in CD2F1 (CDF1) mice
Details: endpoint: median survival time, higher = longer survival
Outline: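 Mice carrying the transplanted tumor received test compound or vehicle. Survival was recorded in each group, and the value is the treated-group measurement divided by that of the vehicle-treated control group.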

[1] = dose: 50.0 mg/kg/injection, schedule: Q01DX009 (ip), vehicle: saline with Tween-80
[2] = dose: 100.0 mg/kg/injection, schedule: Q01DX009 (ip), vehicle: saline with Tween-80
[3] = dose: 200.0 mg/kg/injection, schedule: Q01DX009 (ip), vehicle: saline with Tween-80
[4] = dose: 5.0 mg/kg/injection, schedule: Q01DX009 (ip), vehicle: saline
[5] = dose: 50.0 mg/kg/injection, schedule: Q01DX009 (ip), vehicle: suspension in saline
[6] = dose: 100.0 mg/kg/injection, schedule: Q01DX009 (ip), vehicle: suspension in saline
[7] = dose: 200.0 mg/kg/injection, schedule: Q01DX009 (ip), vehicle: suspension in saline
[8] = dose: 50.0 mg/kg/injection, schedule: Q01DX009 (ip), vehicle: saline
[9] = dose: 100.0 mg/kg/injection, schedule: Q01DX009 (ip), vehicle: saline
[10] = dose: 200.0 mg/kg/injection, schedule: Q01DX009 (ip), vehicle: saline
[11] = dose: 60.0 mg/kg/injection, schedule: Q01DX005 (ip), vehicle: saline with Tween-80
[12] = dose: 120.0 mg/kg/injection, schedule: Q01DX005 (ip), vehicle: saline with Tween-80
[13] = dose: 240.0 mg/kg/injection, schedule: Q01DX005 (ip), vehicle: saline with Tween-80
[14] = dose: 50.0 mg/kg/injection, schedule: Q01DX005 (ip), vehicle: saline with Tween-80
[15] = dose: 100.0 mg/kg/injection, schedule: Q01DX005 (ip), vehicle: saline with Tween-80
[16] = dose: 200.0 mg/kg/injection, schedule: Q01DX005 (ip), vehicle: saline with Tween-80

**Q.** How did the T/C (dose: 2.1 mg/kg/injection, schedule: Q01DX010 (ip), vehicle: saline) turn out when `CC(=O)NC1C=CC(=O)O1` (stereo unspecified) was run?
**A.** The T/C was 104 % of control.

**Q.** With `C[As](C)SC1CC(OC(=O)c2ccccc2)C(OC(=O)c2ccccc2)C(COC(=O)c2ccccc2)O1` (stereo unspecified) as the compound, how does the T/C [1] read?
**A.** The T/C was 100 % of control.

**Q.** And the T/C [2]?
**A.** Its T/C is 106 % of control.

**Q.** What about the T/C [3] of the same compound?
**A.** Its T/C is 105 % of control.

**Q.** How did the T/C (dose: 0.25 mg/kg/injection, schedule: Q01DX001 (ip), vehicle: water) turn out when `COC(C(=O)C(O)C(C)O)C1CC2C=C3C=C(OC4CC(OC5CC(O)C(OC)C(C)O5)C(OC(C)=O)C(C)O4)C(C)C(=O)C3=C(O)C2=C(O)C1OC1CC(OC2CC(OC3CC(C)(O)C(O)C(C)O3)C(O)C(C)O2)C(O)C(C)O1` (stereo unspecified) was run?
**A.** The T/C was 110 % of control.

**Q.** And the T/C (dose: 0.5 mg/kg/injection, schedule: Q01DX001 (ip), vehicle: water)?
**A.** Its T/C is 112 % of control.

**Q.** What about the T/C (dose: 1.0 mg/kg/injection, schedule: Q01DX001 (ip), vehicle: water) of the same compound?
**A.** The T/C was 118 % of control.

**Q.** And the T/C (dose: 2.0 mg/kg/injection, schedule: Q01DX001 (ip), vehicle: water)?
**A.** The T/C was 124 % of control.

**Q.** What about the T/C (dose: 8.0 mg/kg/injection, schedule: Q01DX001 (ip), vehicle: water) of the same compound?
**A.** Its T/C is 154 % of control.

**Q.** What does the source list for `Cc1cccc(C)c1OC(=S)SSC(=S)Oc1c(C)cccc1C`?
**A.** T/C (dose: 100.0 mg/kg/injection, schedule: Q01DX001 (ip), vehicle: Klucel (hydroxypropylcellulose) (HPC)): 94 % of control; T/C (dose: 200.0 mg/kg/injection, schedule: Q01DX001 (ip), vehicle: Klucel (hydroxypropylcellulose) (HPC)): 87 % of control

**Q.** Which results are given for `C=C1c2c(O)c(C)c(O)c(C(C)=O)c2OC12CC(=O)C(C(=O)O)=C2C` (stereo unspecified)?
**A.** T/C (dose: 12.5 mg/kg/injection, schedule: Q01DX009 (ip), vehicle: gum acacia): 105 % of control and 112 % of control; T/C (dose: 25.0 mg/kg/injection, schedule: Q01DX009 (ip), vehicle: gum acacia): 108 % of control and 109 % of control; T/C (dose: 50.0 mg/kg/injection, schedule: Q01DX009 (ip), vehicle: gum acacia): 108 % of control; T/C (dose: 100.0 mg/kg/injection, schedule: Q01DX009 (ip), vehicle: gum acacia): 108 % of control and 110 % of control; T/C (dose: 200.0 mg/kg/injection, schedule: Q01DX009 (ip), vehicle: gum acacia): 108 % of control and 110 % of control

**Q.** Which T/C (dose: 90.0 mg/kg/injection, schedule: Q04DX003 (ip), vehicle: saline with Tween-80) does the source give for `CCOC(=O)c1cc(N)c(N2CCCC2)cc1Cl` here?
**A.** The T/C was 100 % of control.

**Q.** And the T/C (dose: 133.0 mg/kg/injection, schedule: Q04DX003 (ip), vehicle: saline with Tween-80)?
**A.** The T/C was 100 % of control.

**Q.** What about the T/C (dose: 200.0 mg/kg/injection, schedule: Q04DX003 (ip), vehicle: saline with Tween-80) of the same compound?
**A.** Its T/C is 90 % of control.

**Q.** What about the T/C (dose: 300.0 mg/kg/injection, schedule: Q04DX003 (ip), vehicle: saline with Tween-80) of the same compound?
**A.** Its T/C is 95 % of control.

**Q.** Which T/C (dose: 25.0 mg/kg/injection, schedule: Q04DX003 (ip), vehicle: Klucel (hydroxypropylcellulose) (HPC)) does the source give for `Oc1c(Cl)cc(Cl)cc1C=Nc1ccc2c(ccc3c4ccccc4ccc23)c1` here?
**A.** The T/C was 105 % of control.

**Q.** What about the T/C (dose: 50.0 mg/kg/injection, schedule: Q04DX003 (ip), vehicle: Klucel (hydroxypropylcellulose) (HPC)) of the same compound?
**A.** Its T/C is 105 % of control.

**Q.** And the T/C (dose: 100.0 mg/kg/injection, schedule: Q04DX003 (ip), vehicle: Klucel (hydroxypropylcellulose) (HPC))?
**A.** Its T/C is 109 % of control and 86 % of control.

**Q.** `Cc1ccc2c(C(=O)O)cccc2n1` was tested. Which T/C (dose: 100.0 mg/kg/injection, schedule: Q04DX002 (ip), vehicle: saline with Tween-80) did it give?
**A.** Its T/C is 97 % of control.

**Q.** And the T/C (dose: 200.0 mg/kg/injection, schedule: Q04DX002 (ip), vehicle: saline with Tween-80)?
**A.** Its T/C is 98 % of control.

**Q.** And the T/C (dose: 400.0 mg/kg/injection, schedule: Q04DX002 (ip), vehicle: saline with Tween-80)?
**A.** The T/C was 95 % of control.

**Q.** What does the source list for `CN(C)CC#N`?
**A.** T/C [4]: 104 % of control; T/C (dose: 10.0 mg/kg/injection, schedule: Q01DX009 (ip), vehicle: saline): 109 % of control; T/C (dose: 20.0 mg/kg/injection, schedule: Q01DX009 (ip), vehicle: saline): 109 % of control

**Q.** How did the T/C (dose: 50.0 mg/kg/injection, schedule: Q01DX009 (ip), vehicle: Klucel (hydroxypropylcellulose) (HPC)) turn out when `Cc1cc(NC(=S)SCc2ccc3c(c2)OCO3)ccc1Cl` was run?
**A.** Its T/C is 112 % of control.

**Q.** What about the T/C [5] of the same compound?
**A.** The T/C was 91 % of control.

**Q.** What about the T/C (dose: 100.0 mg/kg/injection, schedule: Q01DX009 (ip), vehicle: Klucel (hydroxypropylcellulose) (HPC)) of the same compound?
**A.** Its T/C is 122 % of control.

**Q.** What about the T/C [6] of the same compound?
**A.** Its T/C is 94 % of control.

**Q.** And the T/C (dose: 200.0 mg/kg/injection, schedule: Q01DX009 (ip), vehicle: Klucel (hydroxypropylcellulose) (HPC))?
**A.** Its T/C is 114 % of control.

**Q.** And the T/C [7]?
**A.** The T/C was 90 % of control.

**Q.** Which T/C [8] does the source give for `CC(O)CCCC(C)O` (stereo unspecified) here?
**A.** The T/C was 102 % of control.

**Q.** What about the T/C [9] of the same compound?
**A.** Its T/C is 112 % of control.

**Q.** And the T/C [10]?
**A.** Its T/C is 109 % of control.

**Q.** `COc1ccc(C(C)c2cc3c(cc2OCC(=O)O)OCO3)cc1OC` (stereo unspecified) was tested. Which T/C (dose: 50.0 mg/kg/injection, schedule: Q01DX005 (ip), vehicle: distilled water + Tween-80) did it give?
**A.** The T/C was 95 % of control.

**Q.** What about the T/C (dose: 100.0 mg/kg/injection, schedule: Q01DX005 (ip), vehicle: distilled water + Tween-80) of the same compound?
**A.** Its T/C is 102 % of control.

**Q.** Which T/C (dose: 25.0 mg/kg/injection, schedule: Q04DX002 (ip), vehicle: saline with Tween-80) does the source give for `CN=C(N)N/N=C(\C)c1ccc(-c2ccccc2)cc1` here?
**A.** The T/C was 105 % of control.

**Q.** And the T/C (dose: 50.0 mg/kg/injection, schedule: Q04DX002 (ip), vehicle: saline with Tween-80)?
**A.** The T/C was 106 % of control.

**Q.** What does the source list for `C[C@H](CS)C(=O)N1c2ccccc2C[C@H]1C(=O)O`?
**A.** T/C [11]: 101 % of control; T/C [12]: 104 % of control; T/C [13]: 113 % of control

**Q.** Which results are given for `COc1ccc(C)cc1NC(=O)/N=C1/NC(=O)CS1`?
**A.** T/C [8]: 91 % of control; T/C [9]: 97 % of control; T/C [10]: 91 % of control

**Q.** With `c1ccc2c[n+](CCCCCCCCCC[n+]3ccc4ccccc4c3)ccc2c1` as the compound, how does the T/C (dose: 1.25 mg/kg/injection, schedule: Q01DX009 (ip), vehicle: saline) read?
**A.** Its T/C is 94 % of control.

**Q.** And the T/C (dose: 2.5 mg/kg/injection, schedule: Q01DX009 (ip), vehicle: saline)?
**A.** The T/C was 101 % of control.

**Q.** What about the T/C [4] of the same compound?
**A.** The T/C was 102 % of control.

**Q.** For `CC(C)c1ccc2nc3ccc(C(=O)NCCN4CCN(c5ccccc5)CC4)cn3c(=O)c2c1`, which T/C [11] is on record?
**A.** The T/C was 97 % of control.

**Q.** And the T/C [12]?
**A.** Its T/C is 89 % of control.

**Q.** And the T/C [13]?
**A.** Its T/C is 92 % of control.

**Q.** Which results are given for `Cc1cc(NC(=S)SC(C)C)ccc1Br`?
**A.** T/C [5]: 100 % of control; T/C [6]: 101 % of control; T/C [7]: 100 % of control

**Q.** Which T/C [14] does the source give for `COc1cc2c(cc1C(C)c1cc(C)c(OC)c(C)c1)OCO2` (stereo unspecified) here?
**A.** Its T/C is 100 % of control.

**Q.** What about the T/C [15] of the same compound?
**A.** The T/C was 106 % of control.

**Q.** What about the T/C [16] of the same compound?
**A.** Its T/C is 101 % of control.

**Q.** With `Cc1ccc(C(O)(c2ccc(C)cc2)C(C)(C)O)cc1` as the compound, how does the T/C [11] read?
**A.** The T/C was 98 % of control.

**Q.** And the T/C [12]?
**A.** The T/C was 100 % of control.

**Q.** And the T/C [13]?
**A.** Its T/C is 103 % of control.

**Q.** Which T/C [1] does the source give for `CCOC(=O)C(=CN(C)c1ccc(C)cc1)C(=O)OCC` here?
**A.** Its T/C is 100 % of control.

**Q.** What about the T/C [2] of the same compound?
**A.** The T/C was 103 % of control.

**Q.** And the T/C [3]?
**A.** The T/C was 95 % of control.

**Q.** What does the source list for `CCN1C(=O)/C(=C/C=C/N(C)c2ccccc2)SC1=S`?
**A.** T/C [8]: 112 % of control; T/C [9]: 103 % of control

**Q.** Which results are given for `CCOC(=O)C1(C(O)(C2CC2)C2(C(=O)OCC)CC2)CC1`?
**A.** T/C [14]: 100 % of control; T/C [15]: 102 % of control; T/C [16]: 100 % of control
